Laboratory results published in patent EP4707284A1, “HETEROCYCLIC COMPOUND AND USE THEREOF” (Otsuka Pharmaceutical Co., Ltd., priority 2023, dated 2024).
One block for each compound: values may come before it.

Assays:
HL-60 cells = assay: in vitro; format: cell-based, human; conditions: 300 µmol/L, about 24 hours; for cytotoxicity (%) Evaluation compound results: PMA-differentiated HL-60 cells, LDH activity, no-treatment group 0%, cell lysis buffer-treated group 100%
Description: (§1) An HL-60 cell line (human acute promyelocytic leukemia cells) was successively cultured in RPMI 1640 containing 20% fetal bovine serum (FBS) at 37°C in 95% atmosphere/5% CO2. Before evaluation, the cells were pre-cultured for about 72 hours in the presence of 10 nM phorbol 12-myristate 13-acetate (PMA) to induce macrophage-like differentiation.
(§2) Evaluation compounds were dissolved in DMSO to obtain 30 mmol/L solutions (or suspensions). Each DMSO solution was diluted 100-fold with RPMI 1640 containing 2% FBS (final concentration of the compound: 300 µmol/L) to obtain a treatment solution. The culture supernatant of the differentiated HL-60 cells was removed, and each treatment solution was added and cultured for about 24 hours, followed by cytotoxicity evaluation.
(§3) The activity of lactate dehydrogenase (LDH) was measured in the treatment solutions exposed to the cells for about 24 hours by using a commercial kit (Cytotoxicity LDH Assay Kit-WST, Dojindo Laboratories) and a plate reader (Tecan Infinite M1000). The obtained measurement values were used to calculate cytotoxicity (%) as comparison values for each evaluation compound-treated group, with the no-treatment group taken as 0% and the cell lysis buffer-treated group taken as 100%. The test was conducted in triplicate in three wells each, and the average values were used as adopted values.

[1] = format: physicochemical; conditions: Tris-hydrochloric acid buffer (pH 7.5) 50 mmol/L, magnesium chloride 5 mmol/L, evaluation compound 1 µmol/L, 37°C, 60 minutes, average of duplicate
Method in brief: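 Stability in buffer assessed as brexpiprazole formation: duplicate reactions at 37°C, started by adding compound to pre-warmed solution, quenched at 0 or 60 min with internal-standard-containing acetonitrile/isopropanol (4:1). Calibration curves covered 0.01, 0.1 and 1 µmol/L of compound and brexpiprazole.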

[2] = Dog irritation study (subcutaneous administration); format: in vivo, dogs; conditions: stated in the cytotoxicity method, no details
Description: Male beagle dogs were purchased at the age of 5-7 months from Kitayama Labes Co., Ltd. and used in the experiment after acclimatization. The breeding environment was as follows: feeding: 250 g of solid feed once a day, water intake: unlimited, number of animals per cage: 1, temperature: 21-25°C, humidity: 50-70%, lighting time: 7:00-19:00. The test formulation was subcutaneously administered to dogs anesthetized with 25 mg/kg thiopental sodium using a plastic syringe at a dose of 10 mg/kg per formulation, changing the position on the back. […] The collected tissues were fixed in 10% neutral buffered formalin, and hematoxylin and eosin-stained specimens were prepared for histopathological examination.

in vitro = format: cell-based, human; conditions: human; 300 µmol/L, about 24 hours, PMA-differentiated HL-60 cells, LDH activity; no-treatment group 0%, cell lysis buffer-treated group 100%; read-out: cytotoxicity (%) Evaluation compound results
Description: as §1, §2, §3

Compound: O=C(OC[N+]1(CCCCOc2ccc3ccc(=O)[nH]c3c2)CCN(c2cccc3sccc23)CC1)N1CCCCC1.[I-] [REX 4, 4-(benzo[b]thiophen-4-yl)-1-(4-((2-oxo-1,2-dihydroquinolin-7-yl)oxy)butyl)-1-(((piperidine-1-carbonyl)oxy)methyl)piperazin-1-ium iodide, reference compound]
cytotoxicity compared with control compounds (in words) (HL-60 cells): stronger cytotoxicity than that of the Reference Example 3 compound
cytotoxicity (%) Evaluation compound results (HL-60 cells): 83%

Compound: CC(C)(C)[Si](C)(C)OCCCCOP(=O)([O-])OC[N+]1(CCCCOc2ccc3ccc(=O)[nH]c3c2)CCN(c2cccc3sccc23)CC1 [EX 60]
cytotoxicity (%) Evaluation compound results (HL-60 cells): 16%
Concentration of brexpiprazole formed [1]: 0.00 µM
Concentration of evaluation compound decreased [1]: 0.09 µM

Compound: CCCCCC(=O)OCn1c(=O)ccc2ccc(OCCCCN3CCN(c4cccc5sccc45)CC3)cc21 [Reference Example 3 compound, (7-(4-(4-(benzo[b]thiophen-4-yl)piperazin-1-yl)butoxy)-2-oxoquinolin-1(2H)-yl)methyl hexanoate]
irritation when subcutaneously administered to dogs [2]: showed irritation

Compound: COCCn1nc(C(=O)OCOP(=O)([O-])OC[N+]2(CCCCOc3ccc4ccc(=O)[nH]c4c3)CCN(c3cccc4sccc34)CC2)c2ccccc21 [EX 82]
cytotoxicity (%) Evaluation compound results (HL-60 cells): -2%
Concentration of brexpiprazole formed [1]: 0.00 µM
Concentration of evaluation compound decreased [1]: 0.02 µM

Compound: COCCN(CCOC)P(=O)([O-])OC[N+]1(CCCCOc2ccc3ccc(=O)[nH]c3c2)CCN(c2cccc3sccc23)CC1 [EX 153]
cytotoxicity (%) Evaluation compound results (HL-60 cells): -7%
Concentration of brexpiprazole formed [1]: 0.00 µM
Concentration of evaluation compound decreased [1]: -0.01 µM

Concentration of brexpiprazole formed [1]: 0.00 µM
Concentration of evaluation compound decreased [1]: 0.07 µM
Compound: CCCCCCCCCC(=O)OCOP(=O)([O-])OC[N+]1(CCCCOc2ccc3ccc(=O)[nH]c3c2)CCN(c2cccc3sccc23)CC1 [EX 17, (4-(benzo[b]thiophen-4-yl)-1-(4-((2-oxo-1,2-dihydroquinolin-7-yl)oxy)butyl)piperazin-1-ium-1-yl)methyl ((decanoyloxy)methyl)phosphate]
cytotoxicity at 24 h, 300 µM (in vitro): 8%
